Measurements: US11807628B2, “Benzodiazepine derivatives and uses thereof” (priority 2018, dated 2023)
Non-standard residues stand in square brackets, D forms with d. Residues, ends and D or L forms follow the SMILES beside them. Dolaproine = CO[C@@H]([C@@H]1CCCN1)[C@@H](C)C(=O)O; Dil = CC[C@H](C)[C@H](NC)[C@@H](CC(=O)O)OC; NMeV = CN[C@H](C(=O)O)C(C)C

Key:
SK-OV3 [1] = assay: In vitro analysis of benzodiazepine dimer derivatives, MTT cell viability; type: cell-based; conditions: MTT assay, 6 days incubation
Method: (§1) Example 85: In Vitro Analysis of Benzodiazepine Dimer Derivatives A-498, HCT-116, JIMT-1, MIA-PaCa-2 and HEK-293E were seeded into 24-well plates at 10×10^3 cells/1 mL medium/well. Calu-6, PC-3 and SK-OV-3 were seeded into 24-well plates at 15×10^3 cells/1 mL medium/well. NCI-N87 was seeded into 24-well plates at 25×10^3 cells/1 mL medium/well. The plates were incubated for 24 hours at 37° C. in a humidified 5% CO2-in-air atmosphere. Benzodiazepine dimer derivatives were dissolved initially in DMSO at a concentration of 10 mM. Serial dilutions were made in DMSO. The series of compound dilutions in DMSO were added to triplicate wells of 24-well plates at 5 μL per well. Three wells on each individual plate received 5 μL of DMSO without compound as controls. The final concentration of DMSO per well was 0.5%. The plates were incubated for 6 days at 37° C. in a humidified 5% CO2-in-air atmosphere. Cell viability was determined by the MTT assay and IC50 was generated using a sigmoidal dose-response nonlinear regression curve fit (GraphPad Software Inc.).

HEK-293E = assay: as above; type: cell-based; conditions: MTT assay, 6 days incubation
Method: as §1

PC-3 = assay: as above; type: cell-based; conditions: MTT assay, 6 days incubation
Method: as §1

MIA-PaCa2 = assay: as above; type: cell-based; conditions: MTT assay, 6 days incubation
Method: as §1

A-498 = assay: as above; type: cell-based; conditions: MTT assay, 6 days incubation
Method: as §1

JIMT-1 [2] = assay: as above; type: cell-based; conditions: MTT assay, 6 days incubation
Method: as §1

Calu-6 = assay: as above; type: cell-based; conditions: MTT assay, 6 days incubation
Method: as §1

NCI-N87 [3] = assay: as above; type: cell-based; conditions: Homo sapiens, NCI-N87, 144 h; MTT assay, 6 days incubation
Method: as §1

HCT-116 = assay: as above; type: cell-based; conditions: MTT assay, 6 days incubation
Method: as §1

SK-OV3 [4] = assay: Cell cytotoxicity of antibody-drug conjugate; type: cell-based; conditions: living cells quantified 96 hours later
Method: (§2) NCI-N87, JNMT-2, SK-BR3, and SK-V3 cancer cells were seeded in 96-well plates at a density of 2,000 to 8,000 cells per well in 100 μL of medium, and cultured for 24 hours. The four compounds obtained in Example 46 were treated by serial dilutions of 1:4 from 600 nM to 0.009 nM, and the antibody drug conjugate T-DM1 was treated by serial dilutions of 1:4 from 200 nM to 0.003 nM. Experiments were performed in a similar manner to Test Example 1 to quantify living cells 96 hours later, and results are shown in Table 2 below. Further, results of in vitro analysis of compound T-2-AB, T-3-AB, T-7-AB T-8-AB, T-9-AB, T-11-AB, T-12-AB, T-13-AB, T-14-AB, T-15-AB, T-16-AB, T-17-AB, T-Int-1-AB, T-Int-2-AB, T-Int-14-AB and mT-Int-8-AB were shown in FIG. 10, FIG. 11, FIG. 12, and Table 3.

SK-BR3 = assay: Cell cytotoxicity of antibody-drug conjugate; type: cell-based; conditions: living cells quantified 96 hours later
Method: as §2

JIMT-1 [5] = assay: Cell cytotoxicity of antibody-drug conjugate; type: cell-based; conditions: living cells quantified 96 hours later
Method: as §2

NCI-N87 [6] = assay: Cell cytotoxicity of antibody-drug conjugate; type: cell-based; conditions: living cells quantified 96 hours later
Method: as §2

NCI-N87 cells = assay: In vivo efficacy, tumor xenograft studies in mice; conditions: Male BALB/c nu/nu mice, tumors approximately 95 mm^3 at start, single i.v. injection day 0 (T-2-AB 0.5 or 2 mg/kg, T-DM1 2 mg/kg), 80 days observation
Method: In vivo efficacy of antibody-drug conjugates of the invention was measured by tumor xenograft studies in mice. Male BALB/c nu/nu were injected subcutaneously in the right flank with suspensions of 5×10^6 of NCI-N87 cells respectively in PBS. Mice were randomized into study groups when tumors reached approximately 95 mm^3. T-DM1 (2 mg/kg) and T-2-AB conjugates (0.5 mg/kg or 2 mg/kg) were given i.v. (single injection on treatment day 0). All treatment groups consisted of 6 to 10 animals per group, and tumor size was monitored twice weekly using caliper measurement. The tumor mass was calculated as volume=(width×width×length)/2.
T-7-AB was progressed in the same method except initial tumor size was 150 mm^3.

[7] = Homo sapiens, MIA PaCa-2, 144 h

Molecule: C=C1C[C@H]2C=Nc3cc(OCc4cc(O)cc(COc5cc6c(cc5OC)C(=O)N5CC(=C)C[C@H]5C=N6)c4)c(OC)cc3C(=O)N2C1 [Compound D-1, (Phenol)-PBD-Dimer]
- IC50 (SK-OV3 [1]; Homo sapiens, SK-OV-3, 144 h): 0.175 nM
- IC50 (HEK-293E; HEK293E, 144 h): 0.216 nM
- IC50 (PC-3; Homo sapiens, PC-3, 144 h): 0.126 nM
- IC50 (MIA-PaCa2; [7]): 0.105 nM
- IC50 (A-498; Homo sapiens, A498, 144 h): 414 pM
- IC50 (JIMT-1 [2]; Homo sapiens, JIMT-1, 144 h): 102 pM
- IC50 (Calu-6; Homo sapiens, Calu-6, 144 h): 89 pM
- IC50 (NCI-N87 [3]): 191 pM
- IC50 (HCT-116; Homo sapiens, HCT-116, 144 h): 0.109 nM

Molecule: COc1cc2c(cc1OCc1cc(COc3cc4c(cc3OC)C(=O)N3c5ccccc5C[C@H]3C=N4)cc(CN(C)C)c1)N=C[C@@H]1Cc3ccccc3N1C2=O [Compound D-8, (N,N-dimethylbenzyl)-IBD-Dimer]
- IC50 (NCI-N87 [3]): 62 ± 2 pM

Molecule: COc1cc2c(cc1OCc1cc(O)cc(COc3cc4c(cc3OC)C(=O)N3Cc5ccccc5C[C@H]3C=N4)c1)N=C[C@@H]1Cc3ccccc3CN1C2=O [Compound D-3, (Phenol)-TBD-Dimer]
- IC50 (SK-OV3 [1]; Homo sapiens, SK-OV-3, 144 h): 0.0596 ± 0.0182 nM
- IC50 (HEK-293E; HEK293E, 144 h): 0.0114 ± 0.0026 nM
- IC50 (PC-3; Homo sapiens, PC-3, 144 h): 0.0326 ± 0.0103 nM
- IC50 (MIA-PaCa2; [7]): 0.0106 ± 0.0046 nM
- IC50 (A-498; Homo sapiens, A498, 144 h): 139 pM
- IC50 (JIMT-1 [2]; Homo sapiens, JIMT-1, 144 h): 31 ± 15 pM
- IC50 (Calu-6; Homo sapiens, Calu-6, 144 h): 6.2 pM
- IC50 (NCI-N87 [3]): 32.2 ± 21.3 pM
- IC50 (HCT-116; Homo sapiens, HCT-116, 144 h): 0.0137 ± 0.0086 nM

Molecule: T-DM1
- IC50 (SK-OV3 [4]): 0.109 ± 0.004 nM
- IC50 (SK-BR3): 0.037 ± 0.012 nM
- IC50 (JIMT-1 [5]): 3.15 ± 1.76 nM
- IC50 (NCI-N87 [6]): 0.234 ± 0.096 nM
- Tumor size in NCI-N87 xenograft (NCI-N87 cells): less active than the conjugates of the invention

Molecule: COc1cc2c(cc1OCc1cc(COc3cc4c(cc3OC)C(=O)N3Cc5ccccc5C[C@H]3C=N4)cc(CN(C)C)c1)N=C[C@@H]1Cc3ccccc3CN1C2=O [Compound D-5, (N,N-dimethylbenzyl)-TBD-Dimer]
- IC50 (SK-OV3 [1]; Homo sapiens, SK-OV-3, 144 h): 0.0109 ± 0.0027 nM
- IC50 (HEK-293E; HEK293E, 144 h): 0.0022 ± 0.0011 nM
- IC50 (PC-3; Homo sapiens, PC-3, 144 h): 0.0044 ± 0.0021 nM
- IC50 (MIA-PaCa2; [7]): 0.0019 ± 0.0016 nM
- IC50 (A-498; Homo sapiens, A498, 144 h): 2.9 pM
- IC50 (JIMT-1 [2]; Homo sapiens, JIMT-1, 144 h): 1.7 ± 0.5 pM
- IC50 (Calu-6; Homo sapiens, Calu-6, 144 h): 1.4 pM
- IC50 (HCT-116; Homo sapiens, HCT-116, 144 h): 0.0014 ± 0.0006 nM

Molecule: COc1cc2c(cc1OCc1cncc(COc3cc4c(cc3OC)C(=O)N3Cc5ccccc5C[C@H]3C=N4)c1)N=C[C@@H]1Cc3ccccc3CN1C2=O [Compound D-4, (Pyridine)-TBD-Dimer]
- IC50 (JIMT-1 [2]; Homo sapiens, JIMT-1, 144 h): 1.7 ± 0.6 pM
- IC50 (NCI-N87 [3]): 3.8 ± 2.4 pM

Molecule: COc1cc2c(cc1OCCN(CCOc1cc3c(cc1OC)C(=O)N1Cc4ccccc4C[C@H]1C=N3)c1ccncc1)N=C[C@@H]1Cc3ccccc3CN1C2=O [Compound D-6, (N-Pyridine)-TBD-Dimer]
- IC50 (JIMT-1 [2]; Homo sapiens, JIMT-1, 144 h): 2980 pM
- IC50 (NCI-N87 [3]): 4110 pM

Molecule: CC[C@H](C)[C@@H]([C@@H](CC(=O)N1CCC[C@H]1[C@H](OC)[C@@H](C)C(=O)N[C@@H](Cc1ccccc1)C(=O)OC)OC)N(C)C(=O)[C@@H](NC(=O)[C@@H](NC)C(C)C)C(C)C [MMAF-OMe, reference compound] (H-[NMeV]V[Dil][Dolaproine]F-OMe)
- IC50 (SK-OV3 [1]): 0.244 nM
- IC50 (HEK-293E): 0.97 nM
- IC50 (PC-3): 0.212 nM
- IC50 (MIA-PaCa2): 0.852 nM
- IC50 (A-498): 233 pM
- IC50 (JIMT-1 [2]): 161 pM
- IC50 (Calu-6): 162 pM
- IC50 (HCT-116): 0.392 nM

Molecule: COc1cc2c(cc1OCc1cc(O)cc(COc3cc4c(cc3OC)C(=O)N3C=C(c5ccccc5)C[C@H]3C=N4)c1)N=C[C@@H]1CC(c3ccccc3)=CN1C2=O [Compound D-11]
- IC50 (NCI-N87 [3]): 173 ± 34 pM

Molecule: COc1cc2c(cc1OCCCCCOc1cc3c(cc1OC)C(=O)N1Cc4cc(O)ccc4C[C@H]1C=N3)C=N[C@@H]1Cc3ccccc3CN1C2=O [Compound D-13]
- IC50 (NCI-N87 [3]): 2030 ± 1220 pM

Molecule: C=C1C[C@H]2C=Nc3cc(OCc4cncc(COc5cc6c(cc5OC)C(=O)N5CC(=C)C[C@H]5C=N6)c4)c(OC)cc3C(=O)N2C1 [Compound D-2, (Pyridine)-PBD-Dimer]
- IC50 (SK-OV3 [1]; Homo sapiens, SK-OV-3, 144 h): 0.074 nM
- IC50 (HEK-293E; HEK293E, 144 h): 0.079 nM
- IC50 (PC-3; Homo sapiens, PC-3, 144 h): 0.049 nM
- IC50 (MIA-PaCa2; [7]): 0.044 nM
- IC50 (A-498; Homo sapiens, A498, 144 h): 64 pM
- IC50 (JIMT-1 [2]; Homo sapiens, JIMT-1, 144 h): 34 pM
- IC50 (Calu-6; Homo sapiens, Calu-6, 144 h): 29 pM
- IC50 (NCI-N87 [3]): 104 pM
- IC50 (HCT-116; Homo sapiens, HCT-116, 144 h): 0.036 nM

Molecule: C=C1C[C@H]2C=Nc3cc(OCc4cc(COc5cc6c(cc5OC)C(=O)N5CC(=C)C[C@H]5C=N6)cc(CN(C)C)c4)c(OC)cc3C(=O)N2C1 [Compound D-10]
- IC50 (NCI-N87 [3]): 663 ± 116 pM

Molecule: COc1cc2c(cc1OCc1cccc(COc3cc4c(cc3OC)C(=O)N3Cc5ccccc5C[C@H]3C=N4)c1)N=C[C@@H]1Cc3ccccc3CN1C2=O [Ref-1, reference compound]
- IC50 (JIMT-1 [2]; Homo sapiens, JIMT-1, 144 h): 5.4 ± 1.6 pM
- IC50 (NCI-N87 [3]): 3.5 ± 2.8 pM

Molecule: COc1cc2c(cc1OCc1cc(O)cc(COc3cc4c(cc3OC)C(=O)N3c5ccccc5C[C@H]3C=N4)c1)N=C[C@@H]1Cc3ccccc3N1C2=O [Compound D-7, (Phenol)-IBD-Dimer]
- IC50 (NCI-N87 [3]): 118 ± 9 pM

Molecule: COc1cc2c(cc1OCCN(C)CCOc1cc3c(cc1OC)C(=O)N1Cc4ccccc4C[C@H]1C=N3)N=C[C@@H]1Cc3ccccc3CN1C2=O [Compound D-9]
- IC50 (NCI-N87 [3]): 184 ± 36 pM

Molecule: COc1cc2c(cc1OCc1cc(COc3cc4c(cc3OC)C(=O)N3Cc5cc(O)ccc5C[C@H]3C=N4)cc(CN(C)C)c1)N=C[C@@H]1Cc3ccccc3CN1C2=O [Compound D-12]
- IC50 (NCI-N87 [3]): 2030 pM
